From patent US20240066051A1 (priority 2022, published 2024)

Assays:
S-protein RBD (WT) = molecular target: T1, S-protein RBD (WT) (Severe acute respiratory syndrome coronavirus 2, UniProt P0DTC2); format: binding, SARS-CoV-2
T1 construct: made in house; host or cells: Expi293F cells

[1] = system: SARS-CoV-2 pseudotyped viral particles (wild-type); format: binding
[2] = molecular target: T2, SARS-CoV-2 S-protein RBD WT (Severe acute respiratory syndrome coronavirus 2, UniProt P0DTC2); format: binding; details: immobilized heparin, 1:1 Langmuir global fit, 25° C.
T2 construct: made in house; host or cells: Expi293F cells

Compound | inhibition of the S-protein-heparin interaction (FIG. 5) (S-protein RBD (WT)) | inhibition of pseudotyped viral particle binding to heparin surface compared with heparin control [1] | ka [2] | kd [2] | IC50 (S-protein RBD (WT); read-out: IC50 against the S-protein RBD binding to immobilized heparin)
sulfated lactobionic acid | more modest inhibition activity |  |  |  | 
pentosan polysulfate [PPS] | potently inhibited | stronger inhibition |  |  | 
mucopolysaccharide polysulfate [MPS] | potently inhibited | stronger inhibition |  |  | 
heparin |  |  | 1427 1/MS | 2.5 × 10^−4 1/S | 0.056 µM
O=S(=O)(O)c1cc2c(O)c(c1)Cc1cc(S(=O)(=O)O)cc(c1O)Cc1cc(S(=O)(=O)O)cc(c1O)Cc1cc(S(=O)(=O)O)cc(c1O)Cc1cc(S(=O)(=O)O)cc(c1O)Cc1cc(S(=O)(=O)O)cc(c1O)Cc1cc(S(=O)(=O)O)cc(c1O)Cc1cc(S(=O)(=O)O)cc(c1O)C2 [GL-522-Y-1] | more modest inhibition activity |  |  |  | 
